# How the values were obtained:
# HT29 spheroids = experiment: Spheroid growth, HT29; format: cell-based, human; settings: 10 µM, 96 h treatment
# Method: (§1) For growing multicellular tumor spheroids, 400 HCT116, 400 HT29 or 800 MCF-7 cells per well were plated into round-bottom ultra-low attachment 96-well plates (Corning, Glendale, AZ, USA) in the media described above and incubated at 37 °C for 96 h. Spheroids were treated with 10 µM of the two most cytotoxic compounds 3 and 4 for another 96 h. The diameters of the spheroids were measured with Cell^F software under a CKX41 Olympus microscope before treatment and in constant daily intervals over the 96 h treatment period. For statistical analysis the t-test with Welsh’s correction was implemented in GraphPad Prism software (Version 6.01).
# HCT116 spheroids = experiment: Spheroid growth, HCT116; format: cell-based, human; settings: 10 µM, 96 h treatment
# Method: as §1
# pUC19 plasmid = experiment: Electrophoretic dsDNA plasmid assay; format: biochemical; settings: 50 µM, up to 6 h, 37 °C
# Method: An amount of 400 ng of the pUC19 plasmid (2686 bp, New England Biolabs, Ipswich, MA, USA) was incubated with the test compounds (50 µM). Stock solutions of the test compounds were prepared in MilliQ water. The samples were incubated for different intervals (15 min to 6 h) with continuous shaking at 37 °C. Following the incubation time, 4 µL aliquots of 6 × DNA loading dye (Thermo Fisher, Kandel, Germany) were added to the 20 µL DNA samples. Electrophoresis was performed in a 1% agarose gel in 1 × TBE buffer, started at 60 V for 5 min and continued at 120 V for 90 min. Ethidium bromide (EtBr, Serva Electrophoresis GmbH, Heidelberg, Germany) staining was conducted in 1 × TBE (0.75 µg/mL) for 20 min. Images were taken by the GelDoc Imaging System Fusion F×7 (Vilber Lourmat, Eberhardzell, Germany). For quantification ImageJ/Fiji1.46 was used.
# [1] = Cell-free DCF fluorescence quenching assay
# Method: To verify interactions of complex 4 with the fluorescence of DCF (2′,7′-dichlorofluorescein, Sigma-Aldrich), a fluorescence quenching assay was performed. For this purpose, DCF was dissolved in abs. ethanol (Sigma-Aldrich), diluted in phenol-red-free MEM (1% FBS) to 5 µM and complex 4 dissolved in DMF, diluted to 20 and 200 µM in the same medium. Furthermore, two combinations of 5 µM DCF with 20 and 200 µM of complex 4 were prepared. The fluorescence intensity of the substances alone and their combinations were measured (excitation: 485/20 nm, emission: 516/20 nm) in 10 min intervals with the Synergy HT reader (BioTek) over 2 h.
# MCF-7 cells = settings: 200 µM
# HT29 cells = settings: 200 µM
smiles,measurement,setting,value
"F[P-](F)(F)(F)(F)F.O=c1c([O-])c(-c2ccc(Cl)cc2)oc2ccccc12.[W+4].c1cc[cH-]c1.c1cc[cH-]c1 [Compound 3, Bis(η^5-cyclopentadienyl)[2-(4-chlorophenyl)-3-(oxo-κO)-4(H)-chromen-4-oato-κO]tungsten(IV) hexafluorophosphate]",spheroid growth,HT29 spheroids,completely stop spheroid growth
same,spheroid growth,HCT116 spheroids,markedly reduced growth
same,interaction with plasmid dsDNA,pUC19 plasmid,showing the ability to induce DNA nicks
"F[P-](F)(F)(F)(F)F.[O-]c1c(-c2ccc(Cl)cc2)oc2ccccc2c1=S.[W+4].c1cc[cH-]c1.c1cc[cH-]c1 [Compound 4, Bis(η^5-cyclopentadienyl)[2-(4-chlorophenyl)-3-(oxo-κO)-4(H)-chromen-4-thionato-κS]tungsten(IV) hexafluorophosphate]",spheroid growth,HT29 spheroids,completely stop spheroid growth
same,lower fluorescence intensity relative to DCF (5 µM) alone,[1]; DCF 5 µM + complex 20 µM,36.8%
same,lower fluorescence intensity relative to DCF (5 µM) alone,[1]; DCF 5 µM + complex 200 µM,77.2%
same,spheroid growth,HCT116 spheroids,completely stopped spheroid growth
"F[P-](F)(F)(F)(F)F.O=C([O-])c1ccccn1.[W+4].c1cc[cH-]c1.c1cc[cH-]c1 [Compound 5, Bis(η^5-cyclopentadienyl)[2-(carboxylato-κO)-pyridine-κN]tungsten(IV) hexafluorophosphate]",viable cells [%] AV- / PI-,MCF-7 cells,86.6 ± 7.6%
same,viable cells [%] AV- / PI-,HT29 cells,91.5 ± 8.9%
"Cc1cc(=S)c([O-])co1.F[P-](F)(F)(F)(F)F.[W+4].c1cc[cH-]c1.c1cc[cH-]c1 [Compound 8, Bis(η^5-cyclopentadienyl)[2-methyl-5-(oxo-κO)-pyran-4-(1H)-thionato-κS] tungsten(IV) hexafluorophosphate]",single-strand breaks (sc form to oc form),pUC19 plasmid,15 ± 2%
